This is an account of results in patent publication US5824652A, “Heterocyclic acyldipeptides, processes for the preparation thereof and pharmaceutical compositions containing the same” (Univerza v Ljubljani, Fakulteta za naravoslovje in …, priority 1993, dated 1998).

The test system of one data set is B-16 melanoma. Nature of the data set: Antitumor activity, solid subcutaneous B-16 melanoma. The following applies: 10 mg/kg on five consecutive days, started 24 hours after tumor induction; for Animals with complete regression of tumors: still without tumors on day 20. Format: in vivo, C57B1/6 strain mice. The protocol:
Solid subcutaneous B-16 melanoma were used on C57B1/6 strain mice of 8 to 10 weeks. The tumors were implanted by injection of 3×10^5 live tumor cells into the left lower abdomen of mice. The suspension of tumor cells was prepared in ENAM (Eagle's Minimal Essential Medium, Sigma Chemical Co., St. Louis, Mo., U.S.A.) enriched with 2% foetal calf serum (FCS, Sigma). Tumor cells (B-16 melanoma tumor cells, clone F1, ATCC, Rockville, Md.) for implantation into test animals were grown in vitro in a cell culture. The application of the test substances was started 24 hours after the tumor induction. The test substance was injected five times on five consecutive days in a dose of 10 mg/kg, the dose of Nopia was 1 mg/kg of test animals daily (a fivefold human dose). The antitumor activity of the active compounds was monitored by recording the tumor emergence, daily measuring the tumor diameters and calculating the tumour volumes.

Another data set relates to Candida albicans. Nature of the data set: Immunorestoration test (cyclophosphamide-immunosuppressed mice challenged with Candida albicans). The class given is in vivo. The following applies: for Number of survivals: Candida albicans challenge, n = 10. On the procedure:
The test substance or a vehicle was administered i.p. to groups of 10 mice on days 1, 3 and 5 of the experiment in four different doses (0.1, 1, 10 and 100 mg/kg). Cyclophosphamide (30 mg/kg) was administered p.o. on days 2, 4, and 6. One day after the last immunosuppressant (cyclophosphamide) dose, the mice were challenged with a suspension of Candida albicans sufficient to result in the mortality of a predominant number of the animals.

Data set [1] can be described thus: Toxicity, average lethal dose (LD50). Format: in vivo. Particulars: male mice, intravenous application.
For a further data set, the system named is lymphocytes B. Nature of the data set: Determination of haemolytic plaques for the assessment of the maturation of lymphocytes B. The class given is in vivo. Particulars: mice immunized with sheep erythrocytes, n = 5. The protocol:
A suspension of sheep erythrocytes (Institute of Microbiology, Faculty of Medicine, Ljubljana, Slovenia) in physiological saline (10^8 /ml) was used for the immunization. […] Romurtide was dissolved in a solution of D-manitol (45 mg/ml; Nopia) and compound 1 was dissolved in physiological saline. The immunization was completed on day 5 after the administration of sheep erythrocytes and the mice were sacrificed. Their spleens were removed and homogenized in Gibco 199 medium. The lymphocytes were separated on the Ficol separating medium (Pharmacia, Uppsala, Sweden). After repeated rinsing with Gibco 199 medium, the cells were resuspended in RPMI 1640 nutrient medium with added 10% of foetal calf serum and streptomycin. To 50 μl of the cell suspension, 450 μl of trypan blue were added and the cells were counted in Neubauer's chamber. The number of lymphocytes per ml of the cell suspension was calculated. To 100 μl of the diluted cell suspension, there were added 200 μl of the RPMI 1640 nutrient medium, 50 μl of a 10% suspension of sheep erythrocytes and 50 μl of guinea pig complement (Institute for Microbiology, Faculty of Medicine, Ljubljana, Slovenia). The reaction mixture (RM) was put into the prepared chambers on the slide, the chambers were sealed with white wax and incubated at 37° C. for 60 minutes. After the completion of the incubation, the plaques were counted under microscope. The number of plaques per 1×10^6 cells was calculated according to the following equations: [formula] In the table, the values are presented as stimulation indexes (number of plaques in the test group/number of plaques in the control group).

Data set [2] in a line: Pyrogenous activity according to the method of USPXXII. Format: in vivo. The protocol:
The pyrogenous activity was determined according to the method of USPXXII.

The mark [3] stands for this setting: 0.1 mg/kg × 3 i.p. + cyclophosphamide 30 mg/kg p.o.
Where [4] appears, read: 1 mg/kg × 3 i.p. + cyclophosphamide 30 mg/kg p.o.
[5] abbreviates: 10 mg/kg × 3 i.p. + cyclophosphamide 30 mg/kg p.o.
Setting [6] is: 100 mg/kg × 3 i.p. + cyclophosphamide 30 mg/kg p.o.

In the case of `C[C@@H](NC(=O)C1(C)Oc2ccccc2NC1=O)C(=O)N[C@H](CCC(=O)O)C(N)=O` (stereo partly drawn) [Compound 2, (2R)-N-(3,4-dihydro-2-methyl-3-oxo-2H-1,4-benzoxazine-2-carbonyl)-L-alanyl-D-isoglutamine], the “Animals with complete regression of tumors” value in the data set with B-16 melanoma is reported as “two of eight animals”.
`CCCCCCCCCCCC(=O)N[C@@H]1CCCC[C@H]1OCC(=O)N[C@@H](C)C(=O)N[C@H](CCC(=O)O)C(N)=O` [U.S. 5,231,216, N[trans2-(2dodecanoylaminocyclohexyloxy)acetyl)L-alanyl-D-isoglutamine, reference compound]: the Number of survivals in the data set with Candida albicans (setting [3]) is reported as 2; in the data set on Candida albicans (setting [4]), 5; with Candida albicans (setting [5]) it was 6; in the data set on Candida albicans (setting [6]), 6.
In the data set on Candida albicans (cyclophosphamide alone 30 mg/kg × 3 p.o.), `O=P1(N(CCCl)CCCl)NCCCO1` (stereo not drawn) [Cyclophosphamide, reference compound] showed a Number of survivals of 3.
Regarding `C[C@H](NC(=O)C1(C)Oc2ccccc2NC1=O)C(=O)N[C@H](CCC(=O)O)C(N)=O` (stereo partly drawn) [Compound 3, N-(3,4-dihydro-2-methyl-3-oxo-2H-1,4-benzoxazine-2-carbonyl)-L-alanyl-D-isoglutamine], the “Animals still without tumors on day 20 after the tumor induction” value in the data set with B-16 melanoma was “three animals of nine”.
Take `C[C@H](NC(=O)C1(C)Oc2ccccc2N(C)C1=O)C(=O)N[C@H](CCC(=O)O)C(N)=O` (stereo partly drawn) [Compound 1, N-(3,4-Dihydro-2,4-dimethyl-3-oxo-2H-1,4-benzoxazine-2-carbonyl)-L-alanyl-D-isoglutamine]: the Number of survivals was determined as 6 in the data set with Candida albicans (setting [3]), 6 in the data set with Candida albicans (setting [4]), 7 in the data set on Candida albicans (setting [5]) and 6 with Candida albicans (setting [6]). The “Dose achieving the immunorestorative effect, times lower in comparison with the related compounds of U.S. Pat. No. 5,231,216” value in the data set with Candida albicans (comparison across i.p. doses 0.1-100 mg/kg) is reported as “up to 100 times”. In addition, in the data set with Candida albicans (mouse, in vivo), the “Immunorestorative activity compared with romurtide” value is reported as “superior to that of the MDP analogue romurtide”. In addition, in data set [1], the “average lethal dose (LD50)” value is greater than 250 mg/kg. For the same compound, the “Stimulation index (number of plaques in the test group/number of plaques in the control group)” value with lymphocytes B (dose 1 μ/mouse) was 3.64; in the data set with lymphocytes B (dose 10 μ/mouse), 5.32. Also, the Pyrogenous activity result in data set [2] is reported as “did not show any pyrogenous activity”.
Turning to `CCCCCCCCCCCCCCCCCC(=O)NCCCC[C@H](NC(=O)CC[C@@H](NC(=O)[C@H](C)NC(=O)[C@@H](C)O[C@H]1[C@H](O)[C@@H](CO)OC(O)[C@@H]1NC(C)=O)C(N)=O)C(=O)O` (stereo partly drawn) [Romurtide, romurtide, reference compound], in the data set on Candida albicans (setting [3]), the Number of survivals amounted to 5. Besides, the “Stimulation index (number of plaques in the test group/number of plaques in the control group)” value in the data set with lymphocytes B (dose 1 μ/mouse) came out at 1.06; in the data set with lymphocytes B (dose 10 μ/mouse), 1.92.
Take `C[C@H](NC(=O)C1(C)Oc2ccccc2N(C)C1=O)C(=O)N[C@H](CCC(=O)O)C(N)=O` (stereo partly drawn) [Compound 4, (2S)-N-(3,4-dihydro-2,4-dimethyl-3-oxo-2H-1,4-benzoxazine-2-carbonyl)-L-alanyl-D-isoglutamine]: in the data set with B-16 melanoma, the “Animals with complete regression of tumors” value is “one of nine animals”.
